Among the data in patent US9987277B2, “Carboxamide 4-[(4-pyridyl)amino] pryimidines for the treatment of hepatitis C” (Janssen Sciences Ireland UC, priority 2006, dated 2018) are EC50 values, retold here.

Usually EC50 stands for the concentration at which the effect is half-maximal.

The assay has as its system HCV type 1b replicon (NS3-NS5B) in Huh-7 luc/neo cells. Nature of the assay: HCV replicon assay (Huh-Luc luciferase). The assay is classed as cell-based. To be noted: Hepatitis C virus, Huh-7, 72 h, three days incubation, luciferase activity. The text has this:
The compounds of formula (I) were examined for activity in the inhibition of HCV RNA replication in a cellular assay. […] The cellular assay was based on a bicistronic expression construct, as described by Lohmann et al. (1999) Science vol. 285 pp. 110-113 with modifications described by Krieger et al. (2001) Journal of Virology 75: 4614-4624, in a multi-target screening strategy. In essence, the method was as follows.
The assay utilized the stably transfected cell line Huh-7 luc/neo (hereafter referred to as Huh-Luc). This cell line harbors an RNA encoding a bicistronic expression construct comprising the wild type NS3-NS5B regions of HCV type 1b translated from an Internal Ribosome Entry Site (IRES) from encephalomyocarditis virus (EMCV), preceded by a reporter portion (FfL-luciferase), and a selectable marker portion (neo^R, neomycine phosphotransferase). The construct is bordered by 5′ and 3′ NTRs (non-translated regions) from HCV type 1b. Continued culture of the replicon cells in the presence of G418 (neo^R) is dependent on the replication of the HCV RNA. The stably transfected replicon cells that express HCV RNA, which replicates autonomously and to high levels, encoding inter alia luciferase, are used for screening the antiviral compounds.
The replicon cells were plated in 384 well plates in the presence of the test and control compounds which were added in various concentrations. Following an incubation of three days, HCV replication was measured by assaying luciferase activity (using standard luciferase assay substrates and reagents and a Perkin Elmer ViewLux™ ultraHTS microplate imager). Replicon cells in the control cultures have high luciferase expression in the absence of any inhibitor. The inhibitory activity of the compound on luciferase activity was monitored on the Huh-Luc cells, enabling a dose-response curve for each test compound. EC50 values were then calculated, which value represents the amount of the compound required to decrease by 50% the level of detected luciferase activity, or more specifically, the ability of the genetically linked HCV replicon RNA to replicate.
The following Table 1 lists compounds that were tested for activity in the inhibition of HCV RNA replication in a cellular assay according to the procedure described above. Table 1 provides as well structure characterization data for the compounds of formula (I) as described herein. […] In each case, the expected parent ion was observed, and the Table further provides the LC conditions under which the mass spectrum was measured as well as the retention time of the observed product.
In general terms: Replicon systems follow genome replication, usually without infectious particles.
For the compound `COc1cnc(-c2cc(Cl)ccc2F)nc1Nc1ccncc1C(=O)NCCCN1CCCC1=O` [compound 1], the midpoint of the response, the EC50, lay at 84 nM.

`COc1cnc(-c2cc(Cl)ccc2F)nc1Nc1ccncc1C(=O)NCC(F)(F)F` [compound 2] displayed a concentration giving a half-maximal response (EC50) of 1160 nM.

In turn, `COc1cnc(-c2cc(Cl)ccc2F)nc1Nc1ccncc1C(=O)NC[C@H]1CCCO1` [compound 3] yielded an EC50 of 2640 nM.

For the compound `CCOC(=O)CNC(=O)c1cnccc1Nc1nc(-c2cc(Cl)ccc2F)ncc1OC` [compound 4], the EC50 came to 4620 nM.

As to `COc1cnc(-c2cc(Cl)ccc2F)nc1Nc1ccncc1C(=O)NCCCn1ccnc1` [compound 5], the midpoint of the response, the EC50, lay at 921 nM. This EC50 lies about 5-fold lower than the previous one.

`O=C(NC1CC1)c1cnccc1Nc1nc(-c2cc(Cl)ccc2F)ncc1C1CCCC1` [compound 6] displayed an EC50 of 12700 nM.

As to `O=C(NCCO)c1cnccc1Nc1nc(-c2cc(Cl)ccc2F)ncc1C1CCCC1` [compound 8], a half-maximal effect (EC50) was put at 16400 nM.

Take `COc1cnc(-c2cc(Cl)ccc2F)nc1Nc1ccncc1C(=O)NCCCN1CCOCC1` [compound 9]: the EC50 worked out at 1100 nM.

The compound `COc1cnc(-c2cc(Cl)ccc2F)nc1Nc1ccncc1C(=O)NCCNCCO` [compound 10] showed an EC50 of 1480 nM.

In turn, `COc1cnc(-c2cc(Cl)ccc2F)nc1Nc1ccncc1C(=O)NCCNCC(C)O` (stereo not drawn) [compound 11] registered an EC50 of 1140 nM.

`COc1cnc(-c2cc(Cl)ccc2F)nc1Nc1ccncc1C(=O)NCCCN1CCCCC1C` (stereo not drawn) [compound 13]: the midpoint of the response, the EC50, lay at 550 nM.

Regarding `COc1cnc(-c2cc(Cl)ccc2F)nc1Nc1ccncc1C(=O)NCCN` [compound 14], the EC50 was 3670 nM.
